In US9808434B2, “Compound for treating cancer and diabetes” (CITY OF HOPE, priority 2011, dated 2017):

Key:
SK-MEL2 = test: Intracellular ATP production, luminescence kit; format: cell-based, human; conditions: 5 μM, less than 1 h
Method: ATP production from cells treated with test compounds were measured using the Luminescent ATP Detection Assay Kit. AMP, ATP and ADP were measured by UV-HPLC.
One of the consequences of mitochondria uncoupling is decrease intracellular ATP production, leading to increased AMP:ATP ratio and triggering activation of the energy-sensitive enzyme AMPK. It has been previously shown that COH-SR4 indirectly activates AMPK in a time- and dose-dependent manner in both HepG2 cells and 3T3-adipocytes. […] In melanomas, mutation rates for BRAF NRAS and LKB1 are 50-70%, 5-30%, and 10%, respectively. […] AMPK activation may cause a cell cycle arrest associated with stabilization of p53 and the cyclin-dependent kinase inhibitors p21^WAF1 and p27^CIP1.

H358 lung cancer tumor = test: Histopathology of H358 tumor sections; format: in vivo, mouse; conditions: treated vs control
Method: For lung cancer studies, control and COH-SR4 treated H358 lung cancer bearing mice tumor sections were used for histopathologic analyses. Immuno-histochemistry analyses were performed for Ki67, CD31, E-cadherin, and pAMPK expressions. […] Sections were counterstained with Hematoxylin (blue). Photomicrographs at 40× magnification were acquired using Olympus DP 72 microscope and were processed with DP2-BSW software. Percent staining was determined by measuring positive immuno-reactivity per unit area. The intensity of antigen staining was quantified by digital image analysis using Image Pro plus 6.3 software.
Control and COH-SR4 treated tumor sections obtained from the in-vivo animal studies of Example 31 were used for histopathologic analyses. […] Arrows represent the area for positive staining for an antigen. Bars represent means with 95% confidence intervals (n=5). Asterisks denote statistically significant differences (p<0.001) compared with control by two-sided Student's t test. Statistical significance of difference was determined following image analyses as described in methods section.

[1] = tested on: CDK2, CDK4, cyclin A, cyclin B1, cyclin E1, p27; test: Cell cycle regulator proteins in H358 and H520, Western-blot; format: cell-based, human; conditions: 24 h
Method: (§1) Cell or tissue proteins were extracted with cell lysis buffer (Cell Signaling Technology) and protein concentration was determined using the DC Protein Assay kit (Bio-Rad, Hercules, Calif., USA). Equal amount of proteins (˜40 μg) were loaded onto 4-15% Criterion TGX gels (Bio-Rad, Hercules, Calif.), resolved by SDS-PAGE electrophoresis, and then transferred onto nitrocellulose membranes for immunoblotting. Membranes were blocked with 5% skimmed milk in Tris-buffered saline containing 0.05% Tween 20 before incubation overnight at 4° C. with desired primary antibodies. Immuno-reactive proteins were visualized by peroxidase-labeled secondary antibodies and ECL system (Western Lightning Chemiluminescence Reagent, Perkin-Elmer, Mass., USA). Equal loading of proteins was confirmed by stripping and re-probing the membranes with either β-actin or GAPDH antibodies. Band intensities were quantified using a densitometer (Quantity One, Bio-Rad, Hercules, Calif.).
In the context of the elevation of GSTs in lung cancer, the impact of COH-SR4 on the catalytic activity of GSTs towards 1-chloro 2,4-dinitro benzene (CDNB), a model substrate used for GST activity was analyzed. GST activity towards 1-chloro 2,4-dinitro benzene (CDNB) and its inhibition by COH-SR4 was performed in 28000×g crude supernatant prepared from H1417, H1618, H520 and H358 cells. […]

AMPK = AMPK activation in human melanoma cell lines; format: cell-based; conditions: regardless of BRAF, NRAS and LKB1 mutation
Method: as §1
One of the consequences of mitochondria uncoupling is decrease intracellular ATP production, leading to increased AMP:ATP ratio and triggering activation of the energy-sensitive enzyme AMPK. It has been previously shown that COH-SR4 indirectly activates AMPK in a time- and dose-dependent manner in both HepG2 cells and 3T3-adipocytes. […] In melanomas, mutation rates for BRAF NRAS and LKB1 are 50-70%, 5-30%, and 10%, respectively. […]

[2] = tested on: ACL, adiponectin, C/EBPα, Glut4, PPARγ; test: Adipogenic marker protein expression, Western blotting; format: cell-based, mouse; conditions: 7 days in DM + compound
Method: Post-confluent 3T3-L1 preadipocytes were differentiated for 7 days in the presence of differentiating media (DM), or DM+ test compounds (LR23 (5 μM, 25 μM, or 50 μM), LR59 (5 μM, 25 μM, or 50 μM), LR-90 (25 μM), ROS (50 μM), TSA (0.5 μM) or apicidin (1 μM)). Protein levels were analyzed by Western blotting and the relative expression of each protein was quantified using a densitometer and calculated according to the reference bands of β-actin (FIG. 8). Numbers above each blot represent fold increase over control (undifferentiated preadipocytes).
3T3-L1 preadipocytes cells were treated with differentiating media (DM) with COH-SR4 (1 μM, 3 μM, or 5 μM) or without for 7 days. […] As used in FIG. 9C, U=undifferentiated, D=differentiated with cocktail media.

B16F10 cells = test: B16F10 cell viability; format: cell-based, mouse; conditions: 1-10 μM, 48 hours; vs COH-SR9 and COH-SR18
Method: Cells of highly aggressive mouse melanoma cell line B16F10 were incubated with various doses of COH-SR4, COH-SR9 and COH-SR18 (1, 3, 5 or 10 μM) for 48 hours.

AMPK, ACC, Raptor, TSC2 = test: AMPK-mTOR signaling in lung cancer cells, Western-blot; format: cell-based, human
Method: as §1
AMPK was knocked down by siRNA and assessed the impact on COH-SR4-induced cytotoxicity. […] Thus, the in-vitro analyses of critical signaling proteins of cell proliferation further supported the anti-cancer effects of COH-SR4 in lung cancer cells.

## O=C(Nc1cc(Cl)cc(Cl)c1)Nc1cc(Cl)cc(Cl)c1 [COH-SR4, 1,3-bis(3,5-dichlorophenyl) urea]
SK-MEL2
  intracellular ATP production: rapid decline
H358 lung cancer tumor; ABC staining
  Ki67 and CD31 levels: decreased the levels of proliferation marker Ki67, and angiogenesis marker CD31
H358 lung cancer tumor
  pAMPK and E-cadherin levels: increased the levels of pAMPK and normal differentiation marker E-cadherin
[1]
  protein level of p27: up-regulated
  protein levels of CDK2, CDK4, cyclin A, cyclin B1 and cyclin E1: decreased the protein levels of CDK2, CDK4, cyclin A, cyclin B1 and cyclin E1
AMPK
  activation of AMPK: dose- and time-dependent activation of AMPK
[2]
  expression of adipogenic markers: decreased expression of key transcription factors (C/EBPα, PPARγ) and proteins (ACL, adiponectin, FAS)
B16F10 cells
  potency in killing B16F10 cells: best potency
AMPK, ACC, Raptor, TSC2
  phosphorylation of AMPK, ACC, Raptor, TSC2: increased phosphorylation of AMPK (pAMPK)
